Measurements taken from patent publication US20230312564A1, “AROMATIC RING-LACTAM COMPOUND, PREPARATION METHOD THEREFOR AND USE THEREOF” (SHANGHAI RINGENE BIOPHARMA CO., LTD., priority 2020, published 2023).
Read-outs that look alike come from different tables or passages of the source. Each block holds one compound with its values, some of them ahead of it.

Columns and labels:
[1] = Liver microsomal metabolic stability, rat; type: in vitro ADME; conditions: 0.5 mg/mL microsomes, 1 μM compound, NADPH; for half-life at 1 μM: liver microsomes, read-out: Liver microsomal stability T1/2
Method: (§1) The reaction was stopped with tinidazole-containing acetonitrile at 0 min, 5 min, 10 min and 30 min, respectively. After vortexing for 10 min and centrifuging at 15,000 rmp for 10 min, 50 μL of the supernatant was injected into a 96-well plate. The metabolic stability of the compound was calculated by determining the relative reduction of the drug, calculated as half-life T1/2.

[2] = Liver microsomal metabolic stability, dog; type: in vitro ADME; conditions: 0.5 mg/mL microsomes, 1 μM compound, NADPH; for half-life at 1 μM: liver microsomes, read-out: Liver microsomal stability T1/2
Method: as §1

[3] = Liver microsomal metabolic stability, human; type: in vitro ADME; conditions: 0.5 mg/mL microsomes, 1 μM compound, NADPH; for half-life at 1 μM: liver microsomes, read-out: Liver microsomal stability T1/2
Method: as §1

[4] = Liver microsomal metabolic stability, mouse; type: in vitro ADME; conditions: 0.5 mg/mL microsomes, 1 μM compound, NADPH; for half-life at 1 μM: liver microsomes, read-out: Liver microsomal stability T1/2
Method: as §1

ERK1/2 kinase = target: T1, ERK1/2 kinase; experiment: ERK1/2 kinase (Carna) inhibitory activity, Caliper mobility shift; type: biochemical; conditions: for IC50: numeric values, read-out: ERK½ IC50
T1 construct: fused on or other part: Carna's ERK products carry a GST tag by vendor knowledge
Method: (1) Preparation of 1×Kinase buffer; (2) preparation of compound concentration gradient: the initial test concentration of the tested compound was 10 μM, which was 3-fold diluted to 10 concentrations, and a duplicate test was conducted, and then the tested compound was diluted in a 96 well plate to a 100-fold final concentration of 10 different concentrations of solution. […] Log (inhibitor) vs. response—Variable slope of the analysis software GraphPad Prism 5 was used to fit the dose-effect curve to obtain the IC50 value of each compound on the enzyme activity.
2. […] (A<10 nM, 10 nM≤B<200 nM, C≥200 nM)

Colo-205 cells = experiment: Colo-205 tumor cell proliferation, CCK-8, 72 hours; type: cell-based; conditions: for IC50: 72 hours, CCK-8, numeric values, read-out: Colo-205 IC50; for cell proliferation inhibitory activity (in words): Colo-205
Method: 1. Test method: Colo-205 cells (ATCC) in logarithmic growth phase were inoculated into a 96-well culture plate at an appropriate density with 90 μL per well. After overnight culture, different concentrations of the compound were added and acted for 72 hours, and a solvent control group (negative control) was set. After the compound was acted on cells for 72 hours, the effect of the compound on cell proliferation was detected by the cell counting kit CCK-8 (Dojindo), and 10 μL of CCK-8 reagent was added to each well. After the plate was placed in a 37° C. incubator for 2 to 4 hours, a full-wavelength microplate reader SpectraMax 190 was adopted for obtaining the readings with a measured wavelength of 450 nm. […] The IC50 value was obtained by four-parameter regression with the software attached to the microplate reader.

[5] = Liver microsomal stability, comparisons in words across species; type: in vitro ADME; conditions: for stability of different kinds of liver microsomes (in words): different species, versus the comparative compounds
Method: as §1

CYP1A2 = target: T2, CYP1A2 (Homo sapiens, UniProt P05177); experiment: Direct inhibition test (DI test) in human liver microsomes, CYP1A2; conditions: microsomes
T2 sequence (P05177 1-516): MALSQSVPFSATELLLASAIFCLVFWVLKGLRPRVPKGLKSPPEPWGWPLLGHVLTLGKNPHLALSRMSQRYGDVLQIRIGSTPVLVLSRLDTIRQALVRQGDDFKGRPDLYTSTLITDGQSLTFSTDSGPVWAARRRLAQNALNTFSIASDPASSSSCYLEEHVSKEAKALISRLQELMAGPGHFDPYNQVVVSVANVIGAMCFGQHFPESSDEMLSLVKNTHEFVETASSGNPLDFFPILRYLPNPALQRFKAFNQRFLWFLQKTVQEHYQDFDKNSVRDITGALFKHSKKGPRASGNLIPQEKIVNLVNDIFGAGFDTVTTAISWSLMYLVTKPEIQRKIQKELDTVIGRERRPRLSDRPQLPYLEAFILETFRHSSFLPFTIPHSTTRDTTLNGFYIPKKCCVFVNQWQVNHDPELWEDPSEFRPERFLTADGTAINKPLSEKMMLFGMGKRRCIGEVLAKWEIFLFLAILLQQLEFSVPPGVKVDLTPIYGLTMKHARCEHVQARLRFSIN
Method: (2) Direct inhibition test (DI test): A system containing 100 μL of human liver microsomes (final concentration of 0.2 mg/mL) was subjected to a direct inhibition incubation, and the system contained NADPH (final concentration of 1 mM), 10 μM compound, positive inhibitor cocktail (10 μM ketoconazole, 10 μM quinidine, 100 μM sulfaphenazole, 10 μM α-naphthoflavone, 1,000 μM tranylcypromine), negative control (BPS of 0.1% DMSO), and mixed probe substrates (10 μM midazolam, 100 μM testosterone, 10 μM dextromethorphan, […], 100 μM phenacetin, 100 μM mephenytoin). After 20 minutes of incubation, the reaction was stopped. The relative activity of the enzyme was calculated by measuring the relative production of metabolites.

[6] = tested on: Colo-205 transplanted tumor; experiment: Growth inhibition of nude mice Colo-205 transplanted tumor; type: in vivo; conditions: for effect on the tumor weight (in words) / tumor growth of Colo-205 transplanted tumor nude mice (in words): dose of 50 mg/kg or 25 mg/kg
Method: The tumor tissue in the vigorous growth phase was cut into about 1.5 mm^3 and inoculated subcutaneously in the right axilla of nude mice under sterile conditions. The diameter of subcutaneous transplanted tumors in nude mice was measured with a vernier caliper, and the mice were randomly divided into groups when the average tumor volume reached about 130 mm^3. The embodiment compounds (injection water containing 1% Tween 80 were configured to a desired concentration for later use) were orally administered daily at a given dose for three consecutive weeks, and the solvent control group was administered with the same amount of solvent. During the whole test, the diameter of transplanted tumor was measured twice a week, and the mice were weighed at the same time. The calculation formula of tumor volume (TV) is expressed as TV=1/2×a×b^2, wherein a and b represent length and width, respectively. The relative tumor volume (RTV) was calculated according to the measurement results, and the calculation formula is RTV=Vt/V0, wherein V0 is the tumor volume measured when administered in separate cages (i.e., d0), and Vt is the tumor volume at the time of each measurement.

[7] = In-vivo pharmacokinetic parameters in mice; design: species or system Balb-c mice
Method: (§2) Six male SPF grade SD rats or Balb-c mice (Shanghai Sipple-Bikai Laboratory Animal) were divided into two groups, and the tested compounds were prepared into appropriate solutions or suspensions; one group was administered intravenously (with a dose of 1 mg/kg), and the other group was administered orally (with a dose of 5 mg/kg). Blood samples were collected by jugular vein puncture, and each sample was collected with a volume of about 0.2 mL/time point, and heparin sodium was used for anticoagulation. The time points of blood collection were listed below: 5, 15 and 30 min […], 1, 2, 4, 6, 8 and 24 h after administration; the collected blood samples were placed on ice and centrifuged to separate plasma (centrifugation conditions: 8,000 rpm, 6 min, 2 to 8° C.), and the collected plasma was stored at −80° C. before analysis. Plasma samples were analyzed by LC-MS/MS.
(§3) The pharmacokinetic parameters such as AUC0-t, AUC0-∞, MRT0-∞, Cmax, Tmax, T1/2 and Vd of the tested compounds and their mean values and standard deviations were calculated by the pharmacokinetic calculation software WinNonlin5.2 non-compartmental model according to the plasma concentration data. In addition, the bioavailability (F) was calculated by the following formula.
(§4) For samples with concentrations below the lower limit of quantitation, while pharmacokinetic parameter calculations were performed, samples sampled before Cmax was reached should be calculated as a zero value and samples sampled after Cmax was reached should be calculated as below limit of quantitation (BLQ).

[8] = In-vivo pharmacokinetic parameters in SD rats
Method: as §2, §3, §4

[9] = male, Balb-c, mouse, plasma, IV, 1 mg/kg
[10] = male, Balb-c, mouse, plasma, PO, 5 mg/kg
[11] = male, rat, plasma, 1 mg/kg, IV, 1 mpk
[12] = male, rat, plasma, 5 mg/kg, PO, 5 mpk

Compound: COc1cc(F)cc([C@@H](CO)NC(=O)[C@@H](C)N2Cc3ccc(-c4nc(NC5CCOCC5)ncc4Cl)cc3C2=O)c1 [Comparative compound 5, (R)-2-(6-(5-Chloro-2-((tetrahydro-2H-pyran-4-yl)amino)pyrimidin-4-yl)-1-oxoisoindolin-2-yl)-N—((S)-1-(3-fluoro-5-methoxyphenyl)-2-hydroxyethyl)propanamide, reference compound]
half-life at 1 μM [1]: 3 min | half-life at 1 μM [2]: 41 min | half-life at 1 μM [3]: 3 min | half-life at 1 μM [4]: 15 min

IC50 (ERK1/2 kinase): 5.3 nM | IC50 (Colo-205 cells; Homo sapiens, COLO 205): 90.9 nM | half-life at 1 μM [1]: 13 min | half-life at 1 μM [2]: 78 min | half-life at 1 μM [3]: 62 min | half-life at 1 μM [4]: 234 min | stability of different kinds of liver microsomes (in words) [5]: significant advantages
Compound: C[C@H](C(=O)N[C@H](CO)c1cccc(Cl)c1)N1Cc2ccc(-c3nc(NC4CCOCC4)ncc3Cl)nc2C1=O [Embodiment 21]

IC50 (ERK1/2 kinase): 0.9 nM | IC50 (Colo-205 cells): 17.4 nM | Liver microsomal stability T1/2 [1]: 17 min | Liver microsomal stability T1/2 [2]: 122 min | Liver microsomal stability T1/2 [3]: 13 min | Liver microsomal stability T1/2 [4]: 17 min | stability of different kinds of liver microsomes (in words) [5]: significant advantages | IC50 (CYP1A2): > 10000 nM
Compound: Cc1cccc([C@@H](CO)NC(=O)[C@@H](C)N2Cc3ccc(-c4nc(NC5CCOCC5)ncc4F)c(F)c3C2=O)c1 [Embodiment 31]
enzyme inhibitory activity (in words) (ERK1/2 kinase): extremely strong enzyme inhibitory activity | cell proliferation inhibitory activity (in words) (Colo-205 cells): strong cell proliferation inhibitory activity | effect on the tumor weight (in words) [6]: no significant effect on the tumor weight | tumor growth of Colo-205 transplanted tumor nude mice (in words) [6]: significantly inhibited the tumor growth

IC50 (ERK1/2 kinase): 0.9 nM | IC50 (Colo-205 cells): 14.1 nM | Liver microsomal stability T1/2 [1]: 17 min | Liver microsomal stability T1/2 [2]: 51 min | Liver microsomal stability T1/2 [3]: 18 min | Liver microsomal stability T1/2 [4]: 10 min | stability in liver microsomes (in words) ([5]; mouse, rat and human, compared with comparative compound 5): significantly improved | IC50 (CYP1A2): > 10000 nM
Compound: COc1cc(F)cc([C@@H](CO)NC(=O)[C@@H](C)N2Cc3ccc(-c4nc(NC5CCOCC5)ncc4Cl)c(F)c3C2=O)c1 [Embodiment 33]
enzyme inhibitory activity (in words) (ERK1/2 kinase): extremely strong enzyme inhibitory activity | cell proliferation inhibitory activity (in words) (Colo-205 cells): strong cell proliferation inhibitory activity

IC50 (ERK1/2 kinase): 0.8 nM | IC50 (Colo-205 cells): 34.3 nM | Liver microsomal stability T1/2 [1]: 19 min | Liver microsomal stability T1/2 [2]: 75 min | Liver microsomal stability T1/2 [3]: 18 min | Liver microsomal stability T1/2 [4]: 12 min | stability of different kinds of liver microsomes (in words) [5]: significant advantages
Compound: C[C@H](C(=O)N[C@H](CO)c1cccc(Cl)c1)N1Cc2ccc(-c3nc(NC4CCOCC4)ncc3Cl)c(F)c2C1=O [Embodiment 34]
cell proliferation inhibitory activity (in words) (Colo-205 cells): strong cell proliferation inhibitory activity

IC50 (ERK1/2 kinase): < 1 nM | IC50 (Colo-205 cells): 4.4 nM | Liver microsomal stability T1/2 [1]: 14 min | Liver microsomal stability T1/2 [2]: 27 min | Liver microsomal stability T1/2 [3]: 11 min | Liver microsomal stability T1/2 [4]: 12 min | stability of different kinds of liver microsomes (in words) [5]: significant advantages | F ([7]; PO 5 mg/kg vs IV 1 mg/kg): 54% | AUC(0-inf) [7, 9]: 586 nM·h | AUC(0-t) [7, 9]: 583 nM·h | MRT inf [7, 9]: 18 min | clearance [7, 9]: 3 L/h/kg | half-life [7, 9]: 48 min | Vd ([7]; male, Balb-c, mouse, plasma, IV, 1 mg/kg, read-out: Vss): 0.9 L/kg | AUC(0-inf) [7, 10]: 1580 nM·h | AUC(0-t) [7, 10]: 1570 nM·h | Cmax [7, 10]: 1.68 µM | Tmax [7, 10]: 18 min | half-life [7, 10]: 66 min | F ([8]; PO 5 mpk vs IV 1 mpk): 17% | AUC(0-inf) [8, 11]: 538 nM·h | AUC(0-t) [8, 11]: 536 nM·h | MRT inf [8, 11]: 18 min | clearance [8, 11]: 3.24 L/h/kg | half-life [8, 11]: 48 min | Vd ([8]; male, rat, plasma, 1 mg/kg, IV, 1 mpk, read-out: Vss): 0.8 L/kg | AUC(0-inf) [8, 12]: 452 nM·h | AUC(0-t) [8, 12]: 446 nM·h | Cmax [8, 12]: 0.396 µM | Tmax [8, 12]: 18 min | half-life [8, 12]: 66 min
Compound: C[C@H](C(=O)N[C@H](CO)c1cccc(Cl)c1)N1Cc2ccc(-c3nc(NC4CCOCC4)ncc3F)c(F)c2C1=O [Embodiment 37]
cell proliferation inhibitory activity (in words) (Colo-205 cells): strong cell proliferation inhibitory activity | T/C ([6]; 50 mg/kg, qdx21, po): 28.3% | Initial weight (D0) ([6]; 50 mg/kg, qdx21, po, D0): 23.3 g | Terminal weight (D21) ([6]; 50 mg/kg, qdx21, po, D21): 24.5 g | Initial tumor volume ([6]; 50 mg/kg, qdx21, po, initial): 95 ± 19 mm^3 | Terminal tumor volume ([6]; 50 mg/kg, qdx21, po, terminal): 285 ± 137 mm^3 | effect on the tumor weight (in words) [6]: no significant effect on the tumor weight | tumor growth of Colo-205 transplanted tumor nude mice (in words) [6]: significantly inhibited the tumor growth
